# Laboratory results: US6730792B2, “β3 adrenergic agonists” (Eli Lilly and Company, priority 2000, dated 2004)
# Biological target: T1, human β3 adrenergic receptor (Homo sapiens, UniProt P13945)
# T1 construct: expressed in transfected cells; host or cells: DXB-11 Chinese hamster ovary (CHO) cell line, stably transfected (phd expression vector)
# Test: whole cell receptor coupled c-AMP assay, human β3 receptor in CHO cells (EC50, Emax relative to isoproterenol)
# Format: cell-based
# In short: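 Stably transfected DXB-11 CHO cells (20,000/well) were exposed to compound for 20 min at 37 °C in HBSS/HEPES buffer with 1 mM IBMX, pH 7.4. cAMP was measured by SPA. EC50 came from a four-parameter logistic fit, and Emax is the maximal response as a percentage of isoproterenol's.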
# [1] = Emax ± standard error of the mean, average of at least 3 runs except where n = 1, compound tested in the isolated form listed
# [2] = Emax ± SEM, average of at least 3 runs except as otherwise indicated, tested as the isolated form listed
# T1 sequence (P13945 whole entry): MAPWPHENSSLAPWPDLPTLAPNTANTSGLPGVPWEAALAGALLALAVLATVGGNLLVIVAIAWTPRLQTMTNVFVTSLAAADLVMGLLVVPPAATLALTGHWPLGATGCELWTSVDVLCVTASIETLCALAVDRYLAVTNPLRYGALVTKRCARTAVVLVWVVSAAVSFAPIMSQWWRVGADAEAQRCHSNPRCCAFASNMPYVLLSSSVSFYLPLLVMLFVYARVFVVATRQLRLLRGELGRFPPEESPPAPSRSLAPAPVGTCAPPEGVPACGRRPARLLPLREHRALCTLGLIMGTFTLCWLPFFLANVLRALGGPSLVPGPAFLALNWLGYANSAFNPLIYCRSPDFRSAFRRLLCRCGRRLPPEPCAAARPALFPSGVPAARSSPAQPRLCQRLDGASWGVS
Structure (SMILES),Emax (%) ± SEM [1],Emax (%) ± SEM [2]
CC(C)(Cc1ccc(Oc2ccc(C#N)nc2)cc1)NC[C@H](O)COc1ccccc1-c1ccno1.O=C(O)C(F)(F)F [Example 221],40.8 ± 8.3%,
CCOC(=O)c1ccc(Oc2ccc(CC(C)(C)NC[C@H](O)COc3ccccc3-c3nccs3)cc2)c(Cl)c1.O=C(O)C(F)(F)F [Example 222],59.0 ± 10.0%,
CC(C)(Cc1ccc(Oc2ccc(S(C)(=O)=O)cc2F)cc1)NC[C@H](O)COc1ccccc1-c1cccs1.O=C(O)C(F)(F)F [Example 223],63.7 ± 3.1%,
CC(C)(Cc1ccc(Oc2ccc(S(C)(=O)=O)cc2F)cc1)NC[C@H](O)COc1ccccc1-c1nccs1.O=C(O)C(F)(F)F [Example 224],37.0 ± 0.3%,
CC(C)(Cc1ccc(Oc2ccc(S(N)(=O)=O)cc2F)cc1)NC[C@H](O)COc1ccccc1-c1cccs1.O=C(O)C(F)(F)F [Example 225],59.5 ± 4.3%,
CC(C)(Cc1ccc(Oc2ccc(S(N)(=O)=O)cc2F)cc1)NC[C@H](O)COc1ccccc1-c1nccs1.O=C(O)C(F)(F)F [Example 226],37.8 ± 9.2%,
CC(C)(Cc1ccc(Oc2ccccc2C(N)=O)cc1)NC[C@H](O)COc1ccc(F)cc1-c1cccs1.O=C(O)C(F)(F)F [Example 227],51.3 ± 10.8%,
CC(C)(Cc1ccc(Oc2ccccc2C(N)=O)cc1)NC[C@H](O)COc1cccc(F)c1-c1cccs1.O=C(O)C(F)(F)F [Example 228],28.9 ± 3.4%,
CC(C)(Cc1ccc(Oc2ncccc2C#N)cc1)NC[C@H](O)COc1ccccc1-c1cscn1.Cl [Example 239],49.8 ± 4.5%,
CC(C)(Cc1ccc(Oc2ncccc2C(N)=O)cc1)NC[C@H](O)COc1ccccc1-c1cscn1.Cl [Example 240],65.7 ± 3.8%,
CC(C)(Cc1ccc(Oc2cccnc2C#N)cc1)NC[C@H](O)COc1ccccc1-c1cscn1.Cl [Example 241],47.0 ± 2.5%,
CC(C)(Cc1ccc(Oc2cccnc2C(N)=O)cc1)NC[C@H](O)COc1ccccc1-c1cscn1.Cl [Example 242],55.9 ± 4.0%,
CC(C)(Cc1ccc(Oc2ccccc2C#N)cc1)NC[C@H](O)COc1ccccc1-c1cscn1.Cl [Example 243],47.9 ± 3.5%,
CC(C)(Cc1ccc(Oc2ccccc2C(N)=O)cc1)NC[C@H](O)COc1ccccc1-c1cscn1.Cl [Example 244],66.6 ± 5.7%,
CC(C)(Cc1ccc(Oc2cccc(Cl)c2C#N)cc1)NC[C@H](O)COc1ccccc1-c1cscn1.Cl [Example 245],56.1 ± 2.9%,
CC(C)(Cc1ccc(Oc2cccc(Cl)c2C(N)=O)cc1)NC[C@H](O)COc1ccccc1-c1cscn1.Cl [Example 246],52.1 ± 2.4%,
CC(C)(Cc1ccc(Oc2ccc(C#N)cn2)cc1)NC[C@H](O)COc1ccccc1-c1cscn1.Cl [Example 247],45.4 ± 3.4%,
CC(C)(Cc1ccc(Oc2ccc(C(N)=O)cn2)cc1)NC[C@H](O)COc1ccccc1-c1cscn1.Cl [Example 248],47.5 ± 4.8%,
CC(C)(Cc1ccc(Oc2ccc(S(C)(=O)=O)cc2)cc1)NC[C@H](O)COc1ccccc1-c1cscn1.Cl [Example 249],35.9 ± 2.9%,
CC(C)(Cc1ccc(Oc2ccc(S(C)(=O)=O)cc2F)cc1)NC[C@H](O)COc1ccccc1-c1cscn1.Cl [Example 250],31.6 ± 3.1%,

Structure (SMILES),Emax (%) ± SEM [1],Emax (%) ± SEM [2]
CC(C)(Cc1ccc(Oc2ccc(S(N)(=O)=O)cc2F)cc1)NC[C@H](O)COc1ccccc1-c1cscn1.Cl [Example 251],33.4 ± 5.7%,
CC(C)(Cc1ccc(Oc2ccc(C(N)=O)cc2F)cc1)NC[C@H](O)COc1ccccc1-c1cscn1.Cl [Example 252],38.4 ± 3.8%,
CC(C)(Cc1ccc(Oc2ccc(C(N)=O)cc2Cl)cc1)NC[C@H](O)COc1ccccc1-c1cscn1.Cl [Example 253],37.6 ± 2.7%,
CC(C)(Cc1ccc(Oc2ncc(C(F)(F)F)cc2Cl)cc1)NC[C@H](O)COc1ccccc1-c1cscn1.Cl [Example 254],50.5 ± 0.8%,
CC(C)(Cc1ccc(Oc2cnccn2)cc1)NC[C@H](O)COc1ccccc1-c1cscn1.Cl [Example 256],50.6 ± 1.8%,
CC(C)(Cc1ccc(Oc2ncccn2)cc1)NC[C@H](O)COc1ccccc1-c1cscn1.Cl [Example 257],49.9 ± 3.4%,
CC(C)(Cc1ccc(Oc2ccc(C#N)s2)cc1)NC[C@H](O)COc1ccccc1-c1cscn1.Cl [Example 258],48.4 ± 5.6%,
CC(C)(Cc1ccc(Oc2ccc(C(N)=O)s2)cc1)NC[C@H](O)COc1ccccc1-c1cscn1.Cl [Example 259],54.1 ± 3.9%,
CC(C)(Cc1ccc(Oc2ccc(C#N)o2)cc1)NC[C@H](O)COc1ccccc1-c1cscn1.Cl [Example 260],38.2 ± 2.0%,
CC(C)(Cc1ccc(Oc2ccc(C(N)=O)o2)cc1)NC[C@H](O)COc1ccccc1-c1cscn1.Cl [Example 261],52.3 ± 6.6%,
Cc1nc(-c2ccccc2OC[C@@H](O)CNC(C)(C)Cc2ccc(Oc3ncccc3C(N)=O)cc2)[nH]c1C.Cl.Cl [Example 262],63.6 ± 4.3%,
CC(C)(Cc1ccc(Oc2ccc(S(C)(=O)=O)cc2)cc1)NC[C@H](O)COc1ccccc1-n1cccc1.Cl [Example 265],42.7 ± 9.4%,
CC(C)(Cc1ccc(Oc2ccc(C(N)=O)nc2)cc1)NC[C@H](O)COc1ccccc1-n1cccc1.Cl [Example 266],36.7 ± 6.8%,
CC(C)(Cc1ccc(Oc2cccnc2C#N)cc1)NC[C@H](O)COc1ccccc1-n1cccc1.Cl [Example 268],54.6 ± 8.2%,
CC(C)(Cc1ccc(Oc2ccc(C(N)=O)cc2)cc1)NC[C@H](O)COc1ccccc1-n1cccc1.Cl [Example 269],41.3 ± 4.2%,
CC(C)(Cc1ccc(Oc2ccccc2C(N)=O)cc1)NC[C@H](O)COc1ccccc1-n1cccc1.Cl [Example 270],56.4 ± 8.3%,
CC(C)(Cc1ccc(Oc2ncccc2C(N)=O)cc1)NC[C@H](O)COc1ccccc1-n1ccc(C#N)c1.Cl [Example 271],39.0 ± 0.6%,
CC(C)(Cc1ccc(Oc2ccc(C(N)=O)cn2)cc1)NC[C@H](O)COc1ccccc1-n1ccc(C#N)c1.Cl [Example 272],35.7 ± 2.8%,
CC(C)(Cc1ccc(Oc2ncccc2C(N)=O)cc1)NC[C@H](O)COc1ccccc1-n1ccc(C=O)c1 [Example 273],40.3 ± 0.5%,
CC(C)(Cc1ccc(Oc2ccc(C(N)=O)cn2)cc1)NC[C@H](O)COc1ccccc1-n1ccc(C=O)c1 [Example 274],38.8 ± 1.4%,

Structure (SMILES),Emax (%) ± SEM [1],Emax (%) ± SEM [2]
CC(C)(Cc1ccc(Oc2ccc(C#N)cn2)cc1)NC[C@H](O)COc1ccccc1-c1cccs1.O=C(O)C(=O)O [Example 285],24.6 ± 3.8%,
CC(C)(Cc1ccc(Oc2ccccc2C#N)cc1)NC[C@H](O)COc1ccccc1-c1cccs1.O=C(O)C(F)(F)F [Example 286],72.1 ± 4.5%,
CC(C)(Cc1ccc(Oc2ccncc2)cc1)NC[C@H](O)COc1ccccc1-c1ccno1.O=C(O)C(F)(F)F [Example 287],39.9 ± 4.9%,
CCOC(=O)c1ccc(Oc2ccc(CC(C)(C)NC[C@H](O)COc3ccccc3-c3ccno3)cc2)c(Cl)c1.O=C(O)C(F)(F)F [Example 288],52.9 ± 7.4%,
CC(C)(Cc1ccc(-c2ccccc2C#N)cc1)NC[C@H](O)COc1ccccc1-c1ccno1.O=C(O)C(=O)O [Example 289],37.4 ± 7.2%,
CC(C)(Cc1ccccc1-c1ccc(C#N)cc1)NC[C@H](O)COc1ccccc1-c1ccno1.Cl [Example 290],22.7 ± 1.7%,
CC(C)(Cc1ccc(Oc2cccnc2C#N)cc1)NC[C@H](O)COc1ccccc1-c1ccon1.Cl [Example 297],74.5 ± 6.7%,
CC(C)(Cc1ccc(Oc2ccc(C(N)=O)nc2)cc1)NC[C@H](O)COc1ccccc1-c1ccon1.Cl [Example 298],54.5 ± 0.8%,
CC(C)(Cc1ccc(Oc2ccc(C(N)=O)cc2)cc1)NC[C@H](O)COc1ccccc1-c1ccon1.Cl [Example 299],45.9 ± 3.9%,
CC(C)(Cc1ccc(Oc2ccc(C#N)nc2)cc1)NC[C@H](O)COc1ccccc1-c1ccon1.Cl [Example 300],,52.2 ± 5.9%
CC(C)(Cc1ccc(Oc2ccccc2C(N)=O)cc1)NC[C@H](O)COc1ccccc1-c1ccon1.Cl [Example 301],,69.2 ± 1.2%
CC(C)(Cc1ccc(Oc2ncccc2C(N)=O)cc1)NC[C@H](O)COc1ccccc1-c1ccoc1.Cl [Example 303],,67.9 ± 6.1%
CC(C)(Cc1ccc(Oc2ccc(S(C)(=O)=O)cc2)cc1)NC[C@H](O)COc1ccccc1-c1ccoc1.Cl [Example 304],,44.8 ± 4.9%
CC(C)(Cc1ccc(Oc2ccc(C#N)cn2)cc1)NC[C@H](O)COc1ccccc1-c1ccoc1.Cl [Example 305],,68.8 ± 6.5%
CC(C)(Cc1ccc(Oc2ncccc2C#N)cc1)NC[C@H](O)COc1ccccc1-c1ccoc1.Cl [Example 306],,82.4 ± 4.0%
CC(C)(Cc1ccc(Oc2cccnc2C#N)cc1)NC[C@H](O)COc1ccccc1-c1ccoc1.Cl [Example 307],,74.4 ± 1.8%
CC(C)(Cc1ccc(Oc2ncccc2C(N)=O)cc1)NC[C@H](O)COc1ccccc1-c1ncco1.Cl [Example 308],,71.2 ± 5.8%
CC(C)(Cc1ccc(Oc2ccc(C(N)=O)o2)cc1)NC[C@H](O)COc1ccccc1-c1nccs1.O=C(O)C(F)(F)F [Example 327],,56.7 ± 2.1%
CC(C)(Cc1ccc(Oc2ccc(C#N)s2)cc1)NC[C@H](O)COc1ccccc1-c1nccs1.O=C(O)C(F)(F)F [Example 328],,57.4 ± 6.5%
CC(C)(Cc1ccc(Oc2ccc(C(N)=O)s2)cc1)NC[C@H](O)COc1ccccc1-c1nccs1.O=C(O)C(F)(F)F [Example 329],,60.2 ± 3.0%
